From patent US20260227303A1, “SYSTEMS AND METHODS FOR MEASURING PARTICLE SIZE IN TISSUE AND TURBID MEDIA” (The General Hospital Corporation, priority 2023, published 2026)

Test system: platelets in whole blood
Test: Platelet function testing: laser speckle particle sizing of platelet aggregate size in lysed whole blood
Type: cell-based, human
Experimental: To prepare the 4660 μM CPD stock solution, a Plavix tablet (e.g., 75 mg, Bristol-Meyer Squibb) was crushed to powder, mixed with 50 ml of deionized water, sonicated for 10 minutes, and incubated at 50° C. in a water bath for 3 minutes. Following institutional review board (IRB) approval, de-identified blood specimens from two patients undergoing routine coagulation testing were collected in 0.105 M sodium citrate vacutainer system (e.g., Becton & Dickinson, Co., Franklin Lakes, NJ, USA) from the MGH special coagulation laboratory. The specimen was divided into four samples of 66 μl. The first sample (control) was mixed with 20 μl of saline. The second sample was mixed 5 μl of saline and 10 μl of LB. The third sample was mixed with 5 μl of saline and 10 μl of LB, and 5 μl ADP stock solution (e.g., 5 μM, Helena Laboratories, Beaumont, TX, USA). Finally, the 4th and last sample was mixed 10 μl of LB 5 μl of ADP and 5 μl of diluted CPD (5 μM). The samples were loaded in imaging chambers and speckle image acquisition started promptly. For each of the specimens, both the parallel and perpendicularly polarized speckle frames were captured for 1 second, at 750 fps.
The third sample entailed 66 μl of whole blood plus 5 μl of PBS, 10 μl of lysis buffer, and 5 μl Adenosine diphosphate (ADP), a platelet agonist to initiate platelet aggregation. […]

| Structure (SMILES) | estimated particle size (average radius) (66 μl whole blood + 10 μl RBC lysis buffer + 5 μl ADP + 5 μl CPD, reverts to the lysed-blood level (360 nm), potentially indicating disaggregation of platelets) | estimated particle size (average radius) (66 μl whole blood + 5 μl PBS/saline + 10 μl RBC lysis buffer + 5 μl ADP, lysed blood without ADP 360 nm, increase likely reflects platelet aggregation) |
| --- | --- | --- |
| COC(=O)[C@H](c1ccccc1Cl)N1CCc2sccc2C1 [CPD, clopidogrel bisulphate] | 367 nm | – |
| Nc1ncnc2c1ncn2[C@@H]1O[C@H](COP(=O)(O)OP(=O)(O)O)[C@@H](O)[C@H]1O [ADP, Adenosine diphosphate] | – | 1.8 μm |
